The text below walks through data of PMC5395518, “Design, synthesis, and biological evaluation of the novel glycyrrhetinic acid-cinnamoyl hybrids as anti-tumor agents” (Chemistry Central Journal, 2016).

The structures appear in SMILES notation.

In one test the test system is Hela cells. In words: MTT cytotoxicity assay, Hela. It is filed as cell-based, human. To be noted: MTT, 72 h, mean ± SD (n = 3). The text has this:
(§1) HepG2 (human hepatocellular carcinoma), Hela (human cervical cancer), HT-29 (human colon carcinoma), MDCK (Madin–Darby canine kidney), H9C2 (rat myocardial cells) and HY926 were purchased from the Chinese Academy of Medical Sciences and Peking Union Medical College. All of these cell lines were maintained in RPMI-1640 (DMEM) supplemented with 10% (v/v) fetal bovine serum (FBS) and 1% (v/v) penicillin/streptomycin (Thermo Technologies, New York, NY, USA) under a humidified atmosphere containing 5% CO2 at 37 °C. To provide stock solutions which were used to prepare various concentrations of treatment media, GA and hybrids were added a volume of DMSO.
(§2) The cytotoxicity of these compounds was evaluated on three human cancer cell lines (HepG2, HT-29, Hela) and three non-tumor cells lines (MDCK, HY926, H9C2) and MTT assay was performed to detect the cell proliferation. Simply, exponentially growing cells were cultured in 96-well plates (3 × 10^3 cells/well). And the plates were placed in a humidified atmosphere for 72 h at 37 °C with 5% CO2. After added MTT solution (5 mg/mL) 20 μL to each well, the plate was incubated for a further 4 h. Then the cell supernatant was removed and 150 μL DMSO was added. Finally, the absorbance was determined at wavelength of 490 nm with the ELISA. Wells without drugs were used to be blanks. The IC50 values were calculated using Logit-method. The following Eq. (1) was proposed to calculate the inhibitory rate of cell growth:1 %inhibition=1-Sample group OD/Control group OD×100%

The subject of another test is HepG2 cells. In words: MTT cytotoxicity assay, HepG2. The following applies: mean ± SD (n = 3). It is filed as cell-based, human.
Description: as §1, §2

The test system of another test is HT-29 cells. In words: MTT cytotoxicity assay, HT-29. To be noted: mean ± SD (n = 3). It is filed as cell-based, human.
Description: as §1, §2
On the technique in general: Formazan colour is commonly taken as a measure of viable cells.

A further test has as its system MDCK cells. In words: MTT cytotoxicity assay, MDCK (non-tumor). It is filed as cell-based, canine. The following applies: MTT, 72 h, mean ± SD (n = 3), non-tumor cells.
Description: as §1, §2

In another test the test system is HY926 cells. In words: MTT cytotoxicity assay, HY926 (non-tumor). The format is cell-based. To be noted: MTT, 72 h, mean ± SD (n = 3), non-tumor cells.
Description: as §1, §2

The next test deals with H9C2 cells. In words: MTT cytotoxicity assay, H9C2 (non-tumor). It is filed as cell-based, rat. To be noted: MTT, 72 h, mean ± SD (n = 3), non-tumor cells.
Description: as §1, §2

As to `CC1(C)[C@@H](OC(=O)/C=C/c2ccccc2)CC[C@]2(C)[C@H]3C(=O)C=C4[C@@H]5C[C@@](C)(C(=O)O)CC[C@]5(C)CC[C@@]4(C)[C@]3(C)CC[C@@H]12` [Compound 1a, Cinnamoyl-3β-hydroxy-11-oxoolean-12-en-30-oic acid], the IC50 – broadly, the concentration that inhibits the measured activity by half – with Hela cells was found to be 23.7 ± 2.98 µM; with HepG2 cells (72 h) it was 24.4 ± 1.39 µM; with HT-29 cells (72 h) it was 22.3 ± 1.75 µM; in the test with MDCK cells, 22.6 ± 1.38 µM; in the test on HY926 cells it was 28.9 ± 1.85 µM; in the test with H9C2 cells, 46.1 ± 2.01 µM.
For the molecule `COc1cccc(/C=C/C(=O)OC2CCC3(C)C(CCC4(C)C3C(=O)C=C3C5CC(C)(C(=O)O)CCC5(C)CCC34C)C2(C)C)c1OC` (stereo not drawn) [Compound 6a, (2,3-Dimethoxy) cinnamoyl-3β-hydroxy-11-oxoolean-12-en-30-oic acid], the IC50 in the test on Hela cells is 22.5 ± 2.08 µM; in the test with HepG2 cells (72 h) it was 24.4 ± 1.44 µM; in the test with HT-29 cells (72 h) it was 24.4 ± 1.76 µM; in the test on MDCK cells it was 33.7 ± 1.4 µM; in the test on HY926 cells it was 25 ± 1.38 µM; with H9C2 cells it was more than 50 µM.
In the case of `CC1(C)[C@@H](O)CC[C@]2(C)[C@H]3C(=O)C=C4[C@@H]5C[C@@](C)(C(=O)O)CC[C@]5(C)CC[C@@]4(C)[C@]3(C)CC[C@@H]12` [GA, Glycyrrhetinic acid], the IC50 is more than 50 µM in the test on Hela cells (Homo sapiens, HeLa); more than 50 µM in the test on HepG2 cells (Homo sapiens, HepG2, 72 h); more than 50 µM with HT-29 cells (Homo sapiens, HT-29, 72 h); more than 100 µM in the test on MDCK cells (Canis lupus familiaris, MDCK); more than 100 µM with HY926 cells; more than 100 µM with H9C2 cells (Rattus norvegicus, H9c2).
Consider `COc1cccc(/C=C/C(=O)OC2CCC3(C)C(CCC4(C)C3C(=O)C=C3C5CC(C)(C(=O)O)CCC5(C)CCC34C)C2(C)C)c1` (stereo not drawn) [Compound 4a, (3-Methoxy) cinnamoyl-3β-hydroxy-11-oxoolean-12-en-30-oic acid], for which the IC50 with Hela cells was 17.5 ± 1.52 µM; with HepG2 cells (72 h) it was 12.7 ± 1.1 µM; in the test on HT-29 cells (72 h) it was 14.9 ± 1.8 µM; with MDCK cells it was 22.2 ± 2.56 µM; with HY926 cells, 31 ± 1.87 µM; in the test with H9C2 cells, more than 50 µM.
As for `COc1ccc(OC)c(/C=C/C(=O)OC2CCC3(C)C(CCC4(C)C3C(=O)C=C3C5CC(C)(C(=O)O)CCC5(C)CCC34C)C2(C)C)c1` (stereo not drawn) [Compound 7a, (2,5-Dimethoxy) cinnamoyl-3β-hydroxy-11-oxoolean-12-en-30-oic acid], the IC50 in the test with Hela cells is 28 ± 1.63 µM; with HepG2 cells (72 h), 25.4 ± 1.97 µM; with HT-29 cells (72 h), 26.4 ± 1.96 µM; in the test with MDCK cells it was more than 50 µM; in the test with HY926 cells, 45.1 ± 2.25 µM; in the test with H9C2 cells it was more than 50 µM.
In the case of `COc1cccc(CCC(=O)OC2CCC3(C)C(CCC4(C)C3C(=O)C=C3C5CC(C)(C(=O)O)CCC5(C)CCC34C)C2(C)C)c1OC` (stereo not drawn) [Compound 2b, (2,3-Dimethoxy) phenylpropanoyl-3β-hydroxy-11-oxoolean-12-en-30-oic acid], the IC50 in the test on Hela cells is 23.1 ± 2.33 µM; with HepG2 cells (72 h), 33.1 ± 2.09 µM; with HT-29 cells (72 h) it was 29.3 ± 2.22 µM; in the test with MDCK cells it was 41.3 ± 1.48 µM; with HY926 cells it was more than 50 µM; with H9C2 cells, 45.8 ± 1.8 µM.
With `Cc1ccc(/C=C/C(=O)OC2CCC3(C)C(CCC4(C)C3C(=O)C=C3C5CC(C)(C(=O)O)CCC5(C)CCC34C)C2(C)C)cc1` (stereo not drawn) [Compound 2a, (4-Methyl) cinnamoyl-3β-hydroxy-11-oxoolean-12-en-30-oic acid], the IC50 with Hela cells is 14.2 ± 1.1 µM; with HepG2 cells (72 h), 22.1 ± 1.18 µM; in the test on HT-29 cells (72 h), 21.7 ± 1.81 µM; in the test with MDCK cells it was 38 ± 1.81 µM; with HY926 cells, 27.6 ± 1.84 µM; with H9C2 cells, more than 50 µM.
With `COc1cc(CCC(=O)OC2CCC3(C)C(CCC4(C)C3C(=O)C=C3C5CC(C)(C(=O)O)CCC5(C)CCC34C)C2(C)C)cc(OC)c1OC` (stereo not drawn) [Compound 4b, (3,4,5-Trimethoxy) phenylpropanoyl-3β-hydroxy-11-oxoolean-12-en-30-oic acid], the IC50 with Hela cells is 28.7 ± 1.68 µM; in the test with HepG2 cells (72 h), 22.4 ± 1.29 µM; in the test on HT-29 cells (72 h), 22.4 ± 1.2 µM; in the test with MDCK cells, more than 30 µM; in the test with HY926 cells it was more than 50 µM; in the test on H9C2 cells it was more than 50 µM.
With `COc1ccccc1/C=C/C(=O)OC1CCC2(C)C(CCC3(C)C2C(=O)C=C2C4CC(C)(C(=O)O)CCC4(C)CCC23C)C1(C)C` (stereo not drawn) [Compound 3a, (2-Methoxy) cinnamoyl-3β-hydroxy-11-oxoolean-12-en-30-oic acid], the IC50 in the test with Hela cells is 24.6 ± 1.72 µM; in the test with HepG2 cells (72 h), 32 ± 1.9 µM; with HT-29 cells (72 h), 22.2 ± 2.34 µM; with MDCK cells, 22.9 ± 2.43 µM; in the test with HY926 cells, more than 50 µM; with H9C2 cells, more than 50 µM.
In the case of `COc1ccc(C=CC(=O)OC2CCC3(C)C(CCC4(C)C3C(=O)C=C3C5CC(C)(C(=O)O)CCC5(C)CCC34C)C2(C)C)cc1` (stereo not drawn) [Compound 5a, (4-Methoxy) cinnamoyl-3β-hydroxy-11-oxoolean-12-en-30-oic acid], the half-maximal inhibitory concentration (IC50) with Hela cells was 23.4 ± 1.38 µM; in the test with HepG2 cells (72 h), 31.2 ± 1.34 µM; in the test on HT-29 cells (72 h) it was 33 ± 1.92 µM; in the test with MDCK cells it was 21.7 ± 1.01 µM; with HY926 cells, more than 50 µM; in the test with H9C2 cells it was 36.1 ± 1.92 µM.
Take `CC1(C(=O)O)CCC2(C)CCC3(C)C(=CC(=O)C4C5(C)CCC(OC(=O)CCc6ccccc6)C(C)(C)C5CCC43C)C2C1` (stereo not drawn) [Compound 1b, Phenylpropanoyl-3β-hydroxy-11-oxoolean-12-en-30-oic acid]: the half-maximal inhibitory concentration (IC50) in the test with Hela cells was 26.9 ± 1.74 µM; in the test with HepG2 cells (72 h), 32.3 ± 1 µM; in the test with HT-29 cells (72 h), 28.6 ± 2.99 µM; with MDCK cells it was 33.3 ± 2.98 µM; with HY926 cells, 33.6 ± 3.09 µM; with H9C2 cells, more than 50 µM.
As to `COc1cc(/C=C/C(=O)O[C@H]2CC[C@]3(C)[C@H]4C(=O)C=C5[C@@H]6C[C@@](C)(C(=O)O)CC[C@]6(C)CC[C@@]5(C)[C@]4(C)CC[C@H]3C2(C)C)cc(OC)c1OC` [Compound 9a, (3,4,5-Trimethoxy) cinnamoyl-3β-hydroxy-11-oxoolean-12-en-30-oic acid], the IC50 in the test on Hela cells stood at 30.7 ± 1.89 µM; in the test with HepG2 cells (72 h), 21.9 ± 1.41 µM; in the test on HT-29 cells (72 h), 25.5 ± 1.29 µM; in the test with MDCK cells it was 27.7 ± 1.08 µM; in the test on HY926 cells, 30.8 ± 1.37 µM; with H9C2 cells, 47.4 ± 1.07 µM.
As to `COc1ccc(CCC(=O)O[C@H]2CC[C@]3(C)[C@H]4C(=O)C=C5[C@@H]6C[C@@](C)(C(=O)O)CC[C@]6(C)CC[C@@]5(C)[C@]4(C)CC[C@H]3C2(C)C)c(OC)c1OC` [Compound 3b, (2,3,4-Trimethoxy) phenylpropanoyl-3β-hydroxy-11-oxoolean-12-en-30-oic acid], the IC50 with Hela cells is 22.5 ± 2.16 µM; in the test with HepG2 cells (72 h), 27.3 ± 1.95 µM; in the test with HT-29 cells (72 h), 26.2 ± 1.24 µM; in the test on MDCK cells it was more than 30 µM; in the test with HY926 cells it was 38.5 ± 2.02 µM; in the test with H9C2 cells, more than 50 µM.
`N.N.[Cl][Pt][Cl]` [DPP, cisplatin, reference compound]: the IC50 with Hela cells was 3.76 ± 0.38 µM; in the test on HepG2 cells (72 h), 4.57 ± 0.85 µM; in the test on HT-29 cells (72 h) it was 5.28 ± 0.74 µM; with MDCK cells, 9.97 ± 1.12 µM; in the test with MDCK cells (listed as DDP), less than 10 µM; in the test with HY926 cells it was 5.12 ± 0.71 µM. Besides, the values for the IC50 in the test on HY926 cells (listed as DDP), in the test with H9C2 cells and in the test on H9C2 cells (listed as DDP) were less than 10 µM, 5.31 ± 0.26 µM and less than 10 µM, respectively.
